Reference: patent US20250186466A1, “ZLT-007 AND METHODS OF TREATING DIABETIC NEUROPATHY” (IIere Therapeutics LLC, priority 2022, published 2025)

Assays:
[1] = tested on: subjects with pain associated with diabetic neuropathy; experiment: 12-week clinical study, Daily Pain Numeric Rating Scale (NRS); assay type: in vivo, human
Procedure: (§1) To determine the effect of ZLT-L-007 in subjects with pain associated with diabetic neuropathy, an observational 12-week clinical study to evaluate the efficacy, safety and tolerability of ZLT-L-007 versus Pregabalin (300 Mg/Day) was conducted.
Primary endpoints of the study included: 1. Recording Daily Pain Numeric Rating Scale (NRS) at Baseline, Day 30, Day 60, and Day 90.
Three groups were used to evaluate the effect of ZLT-L-007 in subjects with pain associated with diabetic neuropathy: Group 1 (Pregabalin), Group 2 (ZLT-L-007 pharmaceutical composition+terpene composition), and Group 3 (Pregabalin and ZLT-L-007 pharmaceutical composition+terpene composition). More detailed information regarding each group's treatment is provided below.
Group 3 subjects were already taking pregabalin/Lyrica® at the prescribed dose recommended by their doctor. Subjects then received one capsule by mouth twice daily of the ZLT-L-007 pharmaceutical composition. Participants were also given one capsule by mouth twice daily of a terpene composition that comprised 0.25 mg of myrcene and 0.25 mg of linalool.
Group 3 was administered one capsule by mouth twice daily of the ZLT-L-007 pharmaceutical composition.. Participants were also given one capsule by mouth twice daily of a terpene composition that comprised 0.25 mg of myrcene and 0.25 mg of linalool.

[2] = tested on: subjects with pain associated with diabetic neuropathy; experiment: 12-week clinical study, pain Visual Analog Scale (VAS); assay type: in vivo, human; conditions: Day 30, Day 60, Day 90
Procedure: as §1

In the case of `CC(C)C[C@H](CN)CC(=O)O` [Pregabalin], the “NRS Severity, median percent change from baseline” value ([1]; 30-day follow-up, ZLT-L-007 one capsule by mouth twice daily plus terpene capsule) was −33.33%, the “NRS Severity, median percent change from baseline” value ([1]; 60-day follow-up) was −20.00% and the “NRS Severity, median percent change from baseline” value ([1]; 90-day follow-up) was −35.00%. For the same compound, the “NRS Severity, median percent change from baseline, range” value ([1]; all follow-up periods) was −20.00% to −35.00% and the “VAS pain severity, median percent change from baseline, range” value [2] was −33.33% to −35.00%.
